Data on six compounds can be found in publication PMC8791944, “GLUT3 inhibitor discovery through in silico ligand screening and in vivo validation in eukaryotic expression systems” (Scientific Reports, 2022).

Some results are limits rather than exact numbers.

The CC50 is the concentration at which the toxic effect on the cells reaches its halfway point.

The first data set has as its system MCF7 (breast cancer) cells. The experiment in a line: MTT cancer cell viability assay, MCF7. The data set is classed as cell-based. The note with it: Homo sapiens, MCF7, 48 h. The method, then: A possible therapeutic application of GLUT3 inhibitors is in oncology, especially for cancers in which GLUT3 is a poor prognosis marker. We tested the effect of GLUT3 inhibitors on the cell viability of several different cancer lines: myeloid leukemia (HL60 and U937), lung cancer (A549), colorectal adenocarcinoma (Caco-2), breast cancer (MCF7), hepatocellular carcinoma (HepG2), and choriocarcinoma (BeWo) cells. GLUT3 inhibitors, at five different concentrations, ranging from 2 to 100 µM, were incubated with cancer cells for 48 h. Then, cell viability was assessed with the MTT assay. […] G3iC and G3iD also affected the leukemia cell lines but at double the concentrations of G3iB and G3iE. […] G3iB had some cytotoxic activity (CC50 < 50 µM) against the highest number of cancer cell lines (HL60, U937, A549, HepG2, and MCF7).
Cancer cell viability in the presence of GLUT3 inhibitors was assayed using the MTT Cell Viability Kit (Biotium Inc, Freemont, CA) according to manufacturer’s instructions. Cancer cells were grown in the corresponding medium, at 37 °C and 5% CO2 in a humidified incubator. The media (Gibco) for leukemia cells (HL60 and U937), A549, MCF7, BeWo, and HepG2 cells were RPMI 1640, Ham’s F-12K, DMEM:F-12, Ham’s F-12K, and EMEM, respectively, all supplemented with 10% (v/v) fetal bovine serum (HyClone). Caco-2 cells were grown in EMEM supplemented with 20% (v/v) fetal bovine serum. Cells were detached from the culture flasks with Accutase (Innovative Cell Technologies, Inc., San Diego, CA) according to manufacturer’s instructions. Cells were seeded in 96-well plates, at a density of ~ 30,000 cells/well (in 100 µl fresh media) and incubated with varying concentrations of GLUT3 inhibitors for 48 h, at 37 °C and 5% CO2 in a humidified incubator. The inhibitors were dissolved in DMSO, at 100× the final concentration, so that 1 µl of the stock inhibitor concentration was added per well, making the final DMSO concentration 1% (v/v). Therefore, controls for 100% cell viability were cells with 1% (v/v) DMSO without the inhibitors. Controls for 0% cell viability were cells treated with 0.3% (v/v) Tween 20. For MTT assay, 10 µl of MTT reagent was added in each well followed by 3–4 h incubation at 37 °C and 5% CO2 in a humidified incubator. After thoroughly mixing in 200 µl DMSO in each well, the plates were put into a plate reader (BioTek Synergy H1), and the absorbances at 570 nm and 630 nm were measured with Gen5 program (BioTek Inc.). The experimental values represent Abs570 nm-Abs630 nm with each inhibitor condition and control being the average of three wells.
Supplementary Figure S8. Effect of GLUT3 inhibitors on the viability of various cancer cell lines. Cell viability was determined by MTT assay in A549 (lung cancer), BeWo (choriocarcinoma), Caco-2 (colon cancer), HepG2 (liver cancer), HL-60 (leukemia), MCF7 (breast cancer), and U937 (histiocytic lymphoma) cell lines. GLUT3 inhibitors at concentrations of 2, 5, 10, 20, 50, and 100 µM were incubated with cells in 96-well plates for 48 hours before the addition of the MTT reagent.
In the case of `COc1ccccc1-n1c(/C=C/c2ccc(O)cc2)nc2ccc(Br)cc2c1=O` [G3iB, 6-bromo-2-[(E)-2-(4-hydroxyphenyl)ethenyl]-3-(2-methoxyphenyl)quinazolin-4(3H)-one], the CC50 was < 50 µM. For `O=C(Nc1cccc(Cl)c1)c1cccc(NC(=O)c2cccc([N+](=O)[O-])c2)c1` [G3iE, N-{3-[(3-chloroanilino)carbonyl]phenyl}-3-nitrobenzamide], the CC50 is > 100 µM. Consider `Cc1ccccc1CN(Cc1nnc(C(C)(C)C)o1)c1ccc2nc(O)[nH]c2c1` [G3iF], for which the cytotoxic concentration (CC50) is > 100 µM. The same measure, in the same setting: the value for `Cc1cccnc1OC1CCN(c2cc(N3CCCC3CO)ncn2)CC1` (stereo not shown) [G3iC] was > 50 µM; that for `Cc1cc(NC(=O)CCC2Cc3ccccc3NC2=O)nc(-c2ccccc2)n1` (stereo not shown) [G3iD] was > 50 µM; that for `CC(=O)Nc1ccc(S(=O)(=O)Nc2ccc(Nc3cc(N(C)C)nc(C)n3)cc2)cc1` [G3iA, N-(4-{[(4-{[6-(dimethylamino)-2-methylpyrimidin-4-yl]amino}phenyl)amino]sulfonyl}phenyl)acetamide] was > 100 µM.

Staying with this data set, now noted: MCF7, 48 h.
Take `COc1ccccc1-n1c(/C=C/c2ccc(O)cc2)nc2ccc(Br)cc2c1=O` [G3iB, 6-bromo-2-[(E)-2-(4-hydroxyphenyl)ethenyl]-3-(2-methoxyphenyl)quinazolin-4(3H)-one]: the CC50 came out at 42.6 ± 4.2 µM.
